Assay results: patent US6355799B1, “Substituted benzene compounds, process for their preparation, and herbicidal and defoliant compositions containing them” (ISK Americas Incorporated, priority 1997, dated 2002)

Columns and labels:
Type in all cases: in vivo
[1] = test system: upland rice (Oryza sp., var. Tebonnet, RICE); test: Post-emerge test, crop safety; details: post-emerge, crop damage rating 0-100 at 14 days after application
Outline: (§1)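 Each test used a mechanized track sprayer delivering 187 l/ha of acetone solution at 15–1000 g ai/ha. Post-emerge foliage at 2–3 leaves was treated with added 0.25% v/v non-ionic surfactant and bottom-watered only. Injury was assessed on day 14, where 100 means total kill.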

[2] = test system: field corn (Zea mays L., var. Dekalb 535, CORN); test: Post-emerge test, crop safety; details: post-emerge, crop damage rating 0-100 at 14 days after application
Outline: as §1

[3] = test system: redroot pigweed (Amaranthus retroflexus, AMARE); test: Pre-emerge test, greenhouse herbicide activity screening; details: pre-emerge, phytotoxicity rating 0-100 at 14 days after application
Outline: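 Sandy loam pots; pre-emerge: sown 1 d pre-spray, surface-watered after, then bottom-watered. Post-emerge: sown 8–21 d before, 2–3 leaf stage, + 0.25% v/v NIS, bottom-watered. Acetone, 187 l/ha track spray, 15–1000 g ai/ha. 0–100 injury score, day 14.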

[4] = test system: upland rice (Oryza sp., var. Tebonnet, RICE); test: Pre-emerge test, crop safety; details: crop damage, pre-emerge, phytotoxicity rating 0-100 at 14 days after application
Outline: (§2)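 Visual ratings on a 0-100 scale (0 no damage, 100 all plants dead) were taken at 14 days after treatment. Rates of 15-1000 g ai/ha in acetone, 187 l/ha, were sprayed onto soil one day after planting (pre-emerge) or onto 2-3 leaf plants with 0.25% v/v surfactant (post-emerge).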

[5] = test system: field corn (Zea mays L., var. Dekalb 535, CORN); test: Pre-emerge test, crop safety; details: crop damage, pre-emerge, phytotoxicity rating 0-100 at 14 days after application
Outline: as §2

[6] = test system: green foxtail (Setaria viridis, SETVI); test: Post-emerge test, greenhouse herbicide activity screening; details: post-emerge, phytotoxicity rating 0-100 at 14 days after application
Outline: (§3)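 Compounds in acetone were track-sprayed at 15–1000 g ai/ha: pre-emergence onto soil sown the previous day, then top-watered to incorporate and later bottom-watered; post-emergence onto 2–3 leaf plants with 0.25% v/v surfactant, bottom-watered only. Ratings on a 0–100 phytotoxicity scale were taken at day 14.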

[7] = test system: velvetleaf (Abutilon theophrasti, ABUTH); test: as above; details: post-emerge, phytotoxicity rating 0-100 at 14 days after application
Outline: as §3

[8] = test system: redroot pigweed (Amaranthus retroflexus, AMARE); test: as above; details: post-emerge, phytotoxicity rating 0-100 at 14 days after application
Outline: as §3

[9] = test system: ivyleaf morningglory (Ipomoea hederacea, IPOHE); test: as above; details: post-emerge, phytotoxicity rating 0-100 at 14 days after application
Outline: as §3

[10] = test system: johnsongrass (Sorghum halepense, SORHA); test: as above; details: post-emerge, phytotoxicity rating 0-100 at 14 days after application
Outline: as §3

[11] = test system: barnyardgrass (Echinochloa crus-galli, ECHCG); test: as above; details: post-emerge, phytotoxicity rating 0-100 at 14 days after application
Outline: as §3

[12] = test system: lambsquarters (Chenopodium album, CHEAL); test: as above; details: post-emerge, phytotoxicity rating 0-100 at 14 days after application
Outline: as §3

[13] = test system: large crabgrass (Digitaria sanguinalis, DIGSA); test: as above; details: post-emerge, phytotoxicity rating 0-100 at 14 days after application
Outline: as §3

[14] = test system: sicklepod (Cassia obtusifolia, CASOB); test: as above; details: post-emerge, phytotoxicity rating 0-100 at 14 days after application
Outline: as §3

[15] = test system: green foxtail (Setaria viridis, SETVI); test: Pre-emerge test, greenhouse herbicide activity screening; details: pre-emerge, phytotoxicity rating 0-100 at 14 days after application
Outline: (§4)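 Plants grown in 10 cm pots of sandy loam mix received acetone-dissolved compounds through a moving flat-fan nozzle. Doses ranged from 15 to 1000 g ai/ha. Pre-emerge pots were seeded one day earlier, post-emerge pots 8–21 days earlier. Fourteen days on, each pot was graded 0–100 for damage.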

[16] = test system: velvetleaf (Abutilon theophrasti, ABUTH); test: as above; details: pre-emerge, phytotoxicity rating 0-100 at 14 days after application
Outline: as §4

[17] = test system: ivyleaf morningglory (Ipomoea hederacea, IPOHE); test: as above; details: pre-emerge, phytotoxicity rating 0-100 at 14 days after application
Outline: as §4

[18] = test system: johnsongrass (Sorghum halepense, SORHA); test: as above; details: pre-emerge, phytotoxicity rating 0-100 at 14 days after application
Outline: as §4

[19] = test system: barnyardgrass (Echinochloa crus-galli, ECHCG); test: as above; details: pre-emerge, phytotoxicity rating 0-100 at 14 days after application
Outline: as §4

[20] = test system: lambsquarters (Chenopodium album, CHEAL); test: as above; details: pre-emerge, phytotoxicity rating 0-100 at 14 days after application
Outline: as §4

[21] = test system: large crabgrass (Digitaria sanguinalis, DIGSA); test: as above; details: pre-emerge, phytotoxicity rating 0-100 at 14 days after application
Outline: as §4

[22] = test system: sicklepod (Cassia obtusifolia, CASOB); test: as above; details: pre-emerge, phytotoxicity rating 0-100 at 14 days after application
Outline: as §4

**Q.** What does the source list for CCC(=O)Nc1c(Cl)cc(Cl)c(-n2nc(C)n(C(F)F)c2=O)c1N [Compound 6-19]?
**A.** Post-emerge Herbicidal Activity RICE ([1]; 63 g ai/ha): 0; Post-emerge Herbicidal Activity RICE ([1]; 250 g ai/ha): 0; Post-emerge Herbicidal Activity CORN ([2]; 63 g ai/ha): 0; Post-emerge Herbicidal Activity CORN ([2]; 250 g ai/ha): 0; Pre-emerge Herbicidal Activity AMARE ([3]; rate 63 g ai/ha): 30; Pre-emerge Herbicidal Activity AMARE ([3]; rate 250 g ai/ha): 70; Pre-emerge Herbicidal Activity RICE ([4]; rate 63 g ai/ha): 0; Pre-emerge Herbicidal Activity RICE ([4]; rate 250 g ai/ha): 0; Pre-emerge Herbicidal Activity CORN ([5]; rate 63 g ai/ha): 0; Pre-emerge Herbicidal Activity CORN ([5]; rate 250 g ai/ha): 0; Post-emerge Herbicidal Activity SETVI ([6]; 63 g ai/ha): 0; Post-emerge Herbicidal Activity SETVI ([6]; 250 g ai/ha): 0; Post-emerge Herbicidal Activity ABUTH ([7]; 63 g ai/ha): 0; Post-emerge Herbicidal Activity ABUTH ([7]; 250 g ai/ha): 50; Post-emerge Herbicidal Activity AMARE ([8]; 63 g ai/ha): 0; Post-emerge Herbicidal Activity AMARE ([8]; 250 g ai/ha): 30; Post-emerge Herbicidal Activity IPOHE ([9]; 63 g ai/ha): 0; Post-emerge Herbicidal Activity IPOHE ([9]; 250 g ai/ha): 30; Post-emerge Herbicidal Activity SORHA ([10]; 63 g ai/ha): 0; Post-emerge Herbicidal Activity SORHA ([10]; 250 g ai/ha): 0; Post-emerge Herbicidal Activity ECHCG ([11]; 63 g ai/ha): 0; Post-emerge Herbicidal Activity ECHCG ([11]; 250 g ai/ha): 0; Post-emerge Herbicidal Activity CHEAL ([12]; 63 g ai/ha): 0; Post-emerge Herbicidal Activity CHEAL ([12]; 250 g ai/ha): 60; Post-emerge Herbicidal Activity DIGSA ([13]; 63 g ai/ha): 0; Post-emerge Herbicidal Activity DIGSA ([13]; 250 g ai/ha): 0; Post-emerge Herbicidal Activity CASOB ([14]; 63 g ai/ha): 0; Post-emerge Herbicidal Activity CASOB ([14]; 250 g ai/ha): 0; Pre-emerge Herbicidal Activity SETVI ([15]; rate 63 g ai/ha): 0; Pre-emerge Herbicidal Activity SETVI ([15]; rate 250 g ai/ha): 10; Pre-emerge Herbicidal Activity ABUTH ([16]; rate 63 g ai/ha): 20; Pre-emerge Herbicidal Activity ABUTH ([16]; rate 250 g ai/ha): 50; Pre-emerge Herbicidal Activity IPOHE ([17]; rate 63 g ai/ha): 0; Pre-emerge Herbicidal Activity IPOHE ([17]; rate 250 g ai/ha): 0; Pre-emerge Herbicidal Activity SORHA ([18]; rate 63 g ai/ha): 0; Pre-emerge Herbicidal Activity SORHA ([18]; rate 250 g ai/ha): 0; Pre-emerge Herbicidal Activity ECHCG ([19]; rate 63 g ai/ha): 0; Pre-emerge Herbicidal Activity ECHCG ([19]; rate 250 g ai/ha): 0; Pre-emerge Herbicidal Activity CHEAL ([20]; rate 63 g ai/ha): 70; Pre-emerge Herbicidal Activity CHEAL ([20]; rate 250 g ai/ha): 90; Pre-emerge Herbicidal Activity DIGSA ([21]; rate 63 g ai/ha): 0; Pre-emerge Herbicidal Activity DIGSA ([21]; rate 250 g ai/ha): 0; Pre-emerge Herbicidal Activity CASOB ([22]; rate 63 g ai/ha): 0; Pre-emerge Herbicidal Activity CASOB ([22]; rate 250 g ai/ha): 0
